In patent publication US11697648B2, “Fused pyrimidine pyridinone compounds as JAK inhibitors” (THERAVANCE BIOPHARMA R&D IP, LLC, priority 2019, dated 2023):

What was measured:
JAK2 = JAK2 (Homo sapiens (Human), UniProt O60674); test: Biochemical JAK2 kinase assay (LanthaScreen)
Method in brief: (§1)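 GST-JAK + GFP-STAT1 peptide, HEPES pH 7.5/MgCl2/EGTA/Brij-35 buffer; cpd preincubation 1 h RT; ATP start, 1 h RT; stop with 10 mM EDTA + 2 nM Tb-anti-pSTAT1; TR-FRET 520/495. 4-parameter IC50 → pKi (Cheng-Prusoff).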

JAK3 = JAK3 (Homo sapiens (Human), UniProt P52333); test: Biochemical JAK3 kinase assay (LanthaScreen); settings: for JAK3 (pKi)-JAK1 (pKi): selectivity JAK3 over JAK1, difference of pKi
JAK3, sequence (P52333 whole entry): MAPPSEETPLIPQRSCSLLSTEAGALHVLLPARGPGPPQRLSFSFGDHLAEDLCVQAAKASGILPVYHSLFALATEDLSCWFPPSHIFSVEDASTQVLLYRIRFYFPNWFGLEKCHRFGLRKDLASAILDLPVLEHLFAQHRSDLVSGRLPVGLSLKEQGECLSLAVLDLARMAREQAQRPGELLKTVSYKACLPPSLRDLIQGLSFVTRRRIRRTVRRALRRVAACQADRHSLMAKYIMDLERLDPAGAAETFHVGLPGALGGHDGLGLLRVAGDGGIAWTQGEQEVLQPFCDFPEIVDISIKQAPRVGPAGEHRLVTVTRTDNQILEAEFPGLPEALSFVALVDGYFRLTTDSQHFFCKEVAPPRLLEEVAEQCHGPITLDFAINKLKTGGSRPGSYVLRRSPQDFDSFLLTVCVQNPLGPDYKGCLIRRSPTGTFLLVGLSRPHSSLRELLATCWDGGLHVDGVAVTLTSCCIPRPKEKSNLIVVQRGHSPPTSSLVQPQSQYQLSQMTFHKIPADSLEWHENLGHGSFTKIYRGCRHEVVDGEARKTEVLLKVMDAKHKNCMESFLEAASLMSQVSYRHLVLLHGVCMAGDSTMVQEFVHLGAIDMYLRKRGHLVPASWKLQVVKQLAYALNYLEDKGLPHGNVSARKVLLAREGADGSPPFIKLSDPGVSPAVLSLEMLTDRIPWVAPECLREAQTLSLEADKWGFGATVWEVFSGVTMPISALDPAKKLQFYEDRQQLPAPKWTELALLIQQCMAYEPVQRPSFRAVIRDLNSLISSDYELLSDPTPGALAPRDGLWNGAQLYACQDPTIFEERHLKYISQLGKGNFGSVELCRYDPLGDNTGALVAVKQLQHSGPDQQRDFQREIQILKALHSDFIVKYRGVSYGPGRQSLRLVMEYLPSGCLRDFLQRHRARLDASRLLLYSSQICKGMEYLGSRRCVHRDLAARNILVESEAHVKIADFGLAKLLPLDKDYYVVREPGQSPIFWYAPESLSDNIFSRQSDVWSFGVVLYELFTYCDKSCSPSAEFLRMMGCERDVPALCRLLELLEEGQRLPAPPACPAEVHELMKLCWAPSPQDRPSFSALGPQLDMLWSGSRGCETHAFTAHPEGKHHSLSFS
Method in brief: as §1

Tyk2 = Tyk2 (Homo sapiens (Human), UniProt P29597); test: Biochemical Tyk2 kinase assay (LanthaScreen)
Tyk2, sequence (P29597 whole entry): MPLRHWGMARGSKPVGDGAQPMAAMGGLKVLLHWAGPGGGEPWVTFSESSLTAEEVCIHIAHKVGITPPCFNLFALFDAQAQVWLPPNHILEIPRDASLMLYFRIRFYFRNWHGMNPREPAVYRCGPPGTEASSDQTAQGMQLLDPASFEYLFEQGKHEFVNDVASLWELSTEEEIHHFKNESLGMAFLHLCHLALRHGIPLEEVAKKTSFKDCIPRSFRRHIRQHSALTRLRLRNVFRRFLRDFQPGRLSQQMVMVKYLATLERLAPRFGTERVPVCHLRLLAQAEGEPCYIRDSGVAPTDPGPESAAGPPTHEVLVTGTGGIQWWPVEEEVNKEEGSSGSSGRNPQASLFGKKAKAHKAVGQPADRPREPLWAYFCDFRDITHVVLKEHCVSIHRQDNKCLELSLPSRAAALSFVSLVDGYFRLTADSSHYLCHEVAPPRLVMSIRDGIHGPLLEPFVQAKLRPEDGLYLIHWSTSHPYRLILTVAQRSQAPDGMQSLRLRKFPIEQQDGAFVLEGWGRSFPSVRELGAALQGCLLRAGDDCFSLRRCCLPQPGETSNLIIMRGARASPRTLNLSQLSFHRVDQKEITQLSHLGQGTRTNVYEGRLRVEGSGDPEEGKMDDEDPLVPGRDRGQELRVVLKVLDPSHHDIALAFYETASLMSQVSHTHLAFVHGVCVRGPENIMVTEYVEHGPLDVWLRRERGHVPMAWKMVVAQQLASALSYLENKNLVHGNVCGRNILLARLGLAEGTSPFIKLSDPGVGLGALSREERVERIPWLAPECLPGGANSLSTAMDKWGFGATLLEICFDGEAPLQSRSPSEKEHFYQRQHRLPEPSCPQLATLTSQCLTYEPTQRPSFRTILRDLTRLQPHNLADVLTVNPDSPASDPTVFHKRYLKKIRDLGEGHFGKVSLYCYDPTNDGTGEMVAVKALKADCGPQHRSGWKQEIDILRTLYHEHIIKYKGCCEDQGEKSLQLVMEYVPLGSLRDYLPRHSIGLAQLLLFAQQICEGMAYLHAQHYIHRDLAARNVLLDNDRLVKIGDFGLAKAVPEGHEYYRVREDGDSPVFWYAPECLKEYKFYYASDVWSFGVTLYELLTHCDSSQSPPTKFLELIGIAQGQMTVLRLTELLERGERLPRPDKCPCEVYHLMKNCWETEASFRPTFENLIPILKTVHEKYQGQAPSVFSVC
Method in brief: as §1

[1] = test system: IL-2 stimulated STAT5 phosphorylation in Tall-1 human T cell line (JAK3); test: Cellular JAK3 potency assay: inhibition of IL-2 stimulated pSTAT5 in Tall-1 T cells; type: cell-based; settings: IL-2 stimulated pSTAT5, Tall-1 T cells
Method in brief: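 Tall-1 cells, 45,000 per well, preincubated 1 hour with compound at 37 °C, then stimulated 30 minutes with IL-2 at 300 ng/ml final. pSTAT5 (Tyr694/699) in lysates quantified by AlphaLISA SureFire Ultra. pIC50 derived from inhibition curves, given as mean with SD.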

Caco-2 cell monolayers = test: Caco-2 permeation assay; type: in vitro ADME; settings: 5 μM, A-B direction, with Verapamil (25 μM)
Method: Assay 4: Caco-2 Permeation Assay
The Caco-2 permeation assay was performed to model the ability of test compounds to pass through the intestine and get into the blood stream after oral administration. The rate at which test compounds in solution permeate a cell monolayer designed to mimic the tight junction of human small intestinal monolayers was determined.
CacoReady 24-well transwell plates were obtained from ADMEcell (Alameda, Calif.). The compounds were evaluated at a concentration of 5 μM from 10 mM DMSO stock solutions in duplicate (n=2). The passive permeability of the compounds tested was evaluated using Caco-2 cell monolayers along with Verapamil (25 μM) to inhibit P-gp transport proteins in the apical to basolateral (A-B) direction. The experiment was conducted in a 37° C., 5% CO2 incubator. Caco-2 culture media consisted of standard filtered DMEM, FCS 10%, L-Glutamine 1% and PenStrep 1%. Basal assay plate was prepared by adding 750 μL of transport buffer to A-B wells. A CacoReady™ plate was prepared by removing the Caco-2 media from the apical wells and replacing with fresh transport media (200 μL repeated for a total of 3 washes). Blank media (200 μL) was then replaced with diluted compound for A-B wells. To begin the incubation, the basal plate was removed from the incubator and the apical section was added on top of it. Samples (40 μL) were collected from the apical and basal compartments for time zero (t0). Samples were collected again after 120 minutes (t120) from the apical and basal compartments. All samples were diluted and prepared for bioanalysis by LC-MS/MS. The permeation coefficient (Kp, mean A to B+ Verapamil Papparent) in cm/sec was calculated as dQ (flux)/(dt×Area×concentration).
In this assay, a Kp value less than about 5×10^−6 cm/sec is considered favorable to minimize systemic exposure and target the colon. A Kp value less than about 10×10^−6 cm/sec may also be sufficient to minimize systemic exposure and target the colon.

JAK1 = JAK1 (Homo sapiens (Human), UniProt P23458); test: Biochemical JAK1 kinase assay (LanthaScreen)
JAK1, sequence (P23458 whole entry): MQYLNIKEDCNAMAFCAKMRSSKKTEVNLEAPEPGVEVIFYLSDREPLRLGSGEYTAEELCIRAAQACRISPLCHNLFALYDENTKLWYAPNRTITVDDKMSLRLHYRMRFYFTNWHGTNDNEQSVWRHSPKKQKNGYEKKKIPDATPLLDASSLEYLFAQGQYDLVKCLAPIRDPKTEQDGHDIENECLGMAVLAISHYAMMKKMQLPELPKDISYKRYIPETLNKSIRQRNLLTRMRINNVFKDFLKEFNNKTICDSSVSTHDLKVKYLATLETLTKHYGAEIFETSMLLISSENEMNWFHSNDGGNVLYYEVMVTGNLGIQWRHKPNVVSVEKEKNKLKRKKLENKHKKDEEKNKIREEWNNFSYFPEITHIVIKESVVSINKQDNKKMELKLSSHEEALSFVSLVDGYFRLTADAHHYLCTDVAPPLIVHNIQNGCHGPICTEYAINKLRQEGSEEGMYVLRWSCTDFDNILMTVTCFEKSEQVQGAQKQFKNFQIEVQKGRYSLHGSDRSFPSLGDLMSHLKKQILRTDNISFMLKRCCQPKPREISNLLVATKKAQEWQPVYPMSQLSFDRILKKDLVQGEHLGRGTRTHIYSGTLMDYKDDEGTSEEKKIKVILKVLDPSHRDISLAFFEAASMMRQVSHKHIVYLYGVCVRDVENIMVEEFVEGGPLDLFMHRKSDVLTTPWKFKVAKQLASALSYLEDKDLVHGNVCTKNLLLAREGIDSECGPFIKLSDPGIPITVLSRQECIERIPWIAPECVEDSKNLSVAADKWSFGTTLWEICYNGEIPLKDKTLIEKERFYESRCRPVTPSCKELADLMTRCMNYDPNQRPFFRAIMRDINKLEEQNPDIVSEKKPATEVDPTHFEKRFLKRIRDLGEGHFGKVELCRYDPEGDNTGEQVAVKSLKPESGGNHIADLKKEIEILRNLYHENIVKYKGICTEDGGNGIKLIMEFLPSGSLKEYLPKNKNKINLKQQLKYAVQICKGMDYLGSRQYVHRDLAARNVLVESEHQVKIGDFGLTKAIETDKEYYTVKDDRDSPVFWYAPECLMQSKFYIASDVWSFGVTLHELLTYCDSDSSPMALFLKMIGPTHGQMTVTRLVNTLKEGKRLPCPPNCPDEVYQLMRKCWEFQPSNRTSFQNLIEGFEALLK
Method in brief: as §1

JAK2, sequence (O60674 whole entry): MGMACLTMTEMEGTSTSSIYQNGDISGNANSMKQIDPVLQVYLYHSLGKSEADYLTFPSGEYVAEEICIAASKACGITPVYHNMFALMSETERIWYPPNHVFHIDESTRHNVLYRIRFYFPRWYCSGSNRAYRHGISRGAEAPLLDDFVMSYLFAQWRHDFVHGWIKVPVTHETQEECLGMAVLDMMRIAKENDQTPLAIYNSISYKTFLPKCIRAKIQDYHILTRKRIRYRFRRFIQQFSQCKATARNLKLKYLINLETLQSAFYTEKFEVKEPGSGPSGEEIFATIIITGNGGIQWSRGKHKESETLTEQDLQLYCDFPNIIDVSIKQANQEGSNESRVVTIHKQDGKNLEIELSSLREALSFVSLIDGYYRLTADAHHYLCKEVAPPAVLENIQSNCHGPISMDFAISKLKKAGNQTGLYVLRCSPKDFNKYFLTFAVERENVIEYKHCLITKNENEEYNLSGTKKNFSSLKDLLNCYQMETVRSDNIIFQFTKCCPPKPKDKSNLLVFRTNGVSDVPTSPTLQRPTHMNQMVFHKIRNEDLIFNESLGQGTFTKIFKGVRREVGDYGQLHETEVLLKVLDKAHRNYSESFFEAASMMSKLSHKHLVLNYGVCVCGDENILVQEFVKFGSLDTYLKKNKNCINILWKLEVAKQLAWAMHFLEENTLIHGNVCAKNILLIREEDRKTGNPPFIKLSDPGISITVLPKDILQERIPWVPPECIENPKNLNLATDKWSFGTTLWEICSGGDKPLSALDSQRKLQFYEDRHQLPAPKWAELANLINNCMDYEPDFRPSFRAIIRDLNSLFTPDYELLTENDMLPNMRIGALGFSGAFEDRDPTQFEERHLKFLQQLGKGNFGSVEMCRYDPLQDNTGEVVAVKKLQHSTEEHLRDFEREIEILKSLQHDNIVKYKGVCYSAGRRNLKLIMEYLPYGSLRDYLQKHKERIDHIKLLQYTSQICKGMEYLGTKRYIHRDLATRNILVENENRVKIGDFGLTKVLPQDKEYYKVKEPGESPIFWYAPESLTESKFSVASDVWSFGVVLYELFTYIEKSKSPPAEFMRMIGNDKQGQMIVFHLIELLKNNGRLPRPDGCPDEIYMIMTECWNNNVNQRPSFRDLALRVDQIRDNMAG

| Compound | JAK 2 (pKi) (JAK2) | JAK 3 (pKi) (JAK3) | JAK3 (pKi)-JAK1 (pKi) (JAK3) | Tyk 2 (pKi) (Tyk2) | Tall-1 (pIC50) [1] | Caco Kp (Caco-2 cell monolayers) | JAK 1 (pKi) (JAK1) |
| --- | --- | --- | --- | --- | --- | --- | --- |
| C=CC(=O)N1CC(CCn2c(=O)ccc3cnc(Nc4ccc(N5CCN(C(=O)C(F)(F)F)CC5)cc4)nc32)C1 [Example 109] | E (E represents a pKi value of 7 or below (Ki of 100 nM or above)) | B (B represents pKi value between 9 and 10 (Ki between 1 nM and 0.1 nM)) | B (B represents a value of 2.5 to 3) | E (E represents a pKi value of 7 or below (Ki of 100 nM or above)) | B (B represents a pC50 value between 6.7 (included) and 7.5 (IC50 between 200 nM and 32 nM)) | C (C represents a value between 10×10^−6 and 30×10^−6 cm/sec) | D (D represents a pKi value between 7 and 8 (Ki between 100 nM and 10 nM)) |
| C=CC(=O)N1CC(CCn2c(=O)ccc3cnc(Nc4ccc5[nH]ncc5c4)nc32)C1 [Example 82] | E (E represents a pKi value of 7 or below (Ki of 100 nM or above)) | B (B represents pKi value between 9 and 10 (Ki between 1 nM and 0.1 nM)) | A (A represents a value of 3 or above) | E (E represents a pKi value of 7 or below (Ki of 100 nM or above)) | C (C represents a pIC50 value between 6 and 6.7 (IC50 between 1 μM and 200 nM)) | A (A represents a value below 5×10^−6 cm/sec) | E (E represents a pKi value of 7 or below (Ki of 100 nM or above)) |
| C=CC(=O)N1CC(CCn2c(=O)ccc3cnc(Nc4ccc(N(C)C)cc4)nc32)C1 [Example 91] | E (E represents a pKi value of 7 or below (Ki of 100 nM or above)) | A (A represents a pKi value≥10 (Ki≤0.1 nM)) | A (A represents a value of 3 or above) | E (E represents a pKi value of 7 or below (Ki of 100 nM or above)) | B (B represents a pC50 value between 6.7 (included) and 7.5 (IC50 between 200 nM and 32 nM)) | D (D represents a value over 30×10^−6 cm/sec) | E (E represents a pKi value of 7 or below (Ki of 100 nM or above)) |
| C=CC(=O)N1CC(CCn2c(=O)ccc3cnc(Nc4ccc(NS(C)(=O)=O)cc4)nc32)C1 [Example 69] | E (E represents a pKi value of 7 or below (Ki of 100 nM or above)) | A (A represents a pKi value≥10 (Ki≤0.1 nM)) | A (A represents a value of 3 or above) | E (E represents a pKi value of 7 or below (Ki of 100 nM or above)) | B (B represents a pC50 value between 6.7 (included) and 7.5 (IC50 between 200 nM and 32 nM)) | A (A represents a value below 5×10^−6 cm/sec) | E (E represents a pKi value of 7 or below (Ki of 100 nM or above)) |
| C=CC(=O)N1CC(CCn2c(=O)ccc3cnc(Nc4ccc(N5CCN(C(=O)CC[S+](C)[O-])CC5)cc4)nc32)C1 (stereo not shown) [Example 139] | E (E represents a pKi value of 7 or below (Ki of 100 nM or above)) | A (A represents a pKi value≥10 (Ki≤0.1 nM)) | A (A represents a value of 3 or above) | E (E represents a pKi value of 7 or below (Ki of 100 nM or above)) | C (C represents a pIC50 value between 6 and 6.7 (IC50 between 1 μM and 200 nM)) | A (A represents a value below 5×10^−6 cm/sec) | E (E represents a pKi value of 7 or below (Ki of 100 nM or above)) |
| C=CC(=O)N1CC(CCn2c(=O)ccc3cnc(Nc4ccccc4)nc32)C1 [Example 18] | E (E represents a pKi value of 7 or below (Ki of 100 nM or above)) | A (A represents a pKi value≥10 (Ki≤0.1 nM)) | A (A represents a value of 3 or above) | E (E represents a pKi value of 7 or below (Ki of 100 nM or above)) | B (B represents a pC50 value between 6.7 (included) and 7.5 (IC50 between 200 nM and 32 nM)) | C (C represents a value between 10×10^−6 and 30×10^−6 cm/sec) | E (E represents a pKi value of 7 or below (Ki of 100 nM or above)) |
| C=CC(=O)N1CCN(CCn2c(=O)ccc3cnc(Nc4cnn(C5CCN(C)CC5)c4)nc32)[C@@H](CC)C1 [Example 196] | E (E represents a pKi value of 7 or below (Ki of 100 nM or above)) | B (B represents pKi value between 9 and 10 (Ki between 1 nM and 0.1 nM)) | A (A represents a value of 3 or above) | E (E represents a pKi value of 7 or below (Ki of 100 nM or above)) | B (B represents a pC50 value between 6.7 (included) and 7.5 (IC50 between 200 nM and 32 nM)) | A (A represents a value below 5×10^−6 cm/sec) | E (E represents a pKi value of 7 or below (Ki of 100 nM or above)) |
| C=CC(=O)N1CCN(CCn2c(=O)ccc3cnc(Nc4cnn(Cc5ccccc5)c4)nc32)[C@@H](CC)C1 [Example 194] | E (E represents a pKi value of 7 or below (Ki of 100 nM or above)) | B (B represents pKi value between 9 and 10 (Ki between 1 nM and 0.1 nM)) | A (A represents a value of 3 or above) | E (E represents a pKi value of 7 or below (Ki of 100 nM or above)) | B (B represents a pC50 value between 6.7 (included) and 7.5 (IC50 between 200 nM and 32 nM)) | C (C represents a value between 10×10^−6 and 30×10^−6 cm/sec) | E (E represents a pKi value of 7 or below (Ki of 100 nM or above)) |
| C=CC(=O)N1CC(CCn2c(=O)ccc3cnc(Nc4cccc(N5CCN(S(C)(=O)=O)CC5)c4)nc32)C1 [Example 127] | E (E represents a pKi value of 7 or below (Ki of 100 nM or above)) | A (A represents a pKi value≥10 (Ki≤0.1 nM)) | A (A represents a value of 3 or above) | E (E represents a pKi value of 7 or below (Ki of 100 nM or above)) | B (B represents a pC50 value between 6.7 (included) and 7.5 (IC50 between 200 nM and 32 nM)) | A (A represents a value below 5×10^−6 cm/sec) | E (E represents a pKi value of 7 or below (Ki of 100 nM or above)) |
| C=CC(=O)N1CC(CCn2c(=O)ccc3cnc(Nc4cnn(CCO)c4)nc32)C1 [Example 35] | – | B (B represents pKi value between 9 and 10 (Ki between 1 nM and 0.1 nM)) | A (A represents a value of 3 or above) | – | C (C represents a pIC50 value between 6 and 6.7 (IC50 between 1 μM and 200 nM)) | A (A represents a value below 5×10^−6 cm/sec) | E (E represents a pKi value of 7 or below (Ki of 100 nM or above)) |
| C=CC(=O)N1CC(CCn2c(=O)ccc3cnc(Nc4ccc(N5CCOCC5=O)cc4)nc32)C1 [Example 47] | – | B (B represents pKi value between 9 and 10 (Ki between 1 nM and 0.1 nM)) | A (A represents a value of 3 or above) | – | C (C represents a pIC50 value between 6 and 6.7 (IC50 between 1 μM and 200 nM)) | A (A represents a value below 5×10^−6 cm/sec) | E (E represents a pKi value of 7 or below (Ki of 100 nM or above)) |
